Measurements as given in patent publication US20230183179A1, “NOVEL CELL METABOLISM MODULATING COMPOUNDS AND USES THEREOF” (CRESCENTA BIOSCIENCES, priority 2020, published 2023).

Tests used:
[1] = molecular target: T1, His6 tagged human recombinant FABP4 (Homo sapiens, UniProt P15090); experiment: FABP4 TR-FRET assay: displacement of fluorescent fatty acid BODIPY FL C12; conditions: inhibition of BODIPY FL C12 binding to His6-FABP4; 1.2 μL of 1.085 mM compound in DMSO per well; triplicates, mean percent inhibition
T1 construct: purchased Cayman Chemicals 10009549
T1 sequence (P15090 whole entry): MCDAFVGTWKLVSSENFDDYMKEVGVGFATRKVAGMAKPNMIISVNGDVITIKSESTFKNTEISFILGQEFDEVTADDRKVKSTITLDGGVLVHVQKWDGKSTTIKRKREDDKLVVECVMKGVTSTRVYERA
From the text: Activity of compounds with FABP4 was profiled using a Terbium (Tb) based time resolved fluorescence energy transfer (TR-FRET) assay. The assay measures the compound mediated displacement of the fluorescent fatty acid BODIPY FL C12 (Thermo Fisher; catalog number D3822) from His6 tagged human recombinant FABP4 (His6-FABP4; Cayman Chemicals, catalog number 10009549) via recording the energy transfer from TB donor molecule on anti-His6-tag antibody to acceptor BODIPY moiety. Briefly, compounds and BODIPY FL C12 were prepared at a concentration of 1.085 mM and 4.2 μM, respectively, in DMSO. 1.2 μL of each compound or DMSO (vehicle control) and 1.2 μL of BODIPY FL C12 were added into the wells of a 384-well black polypropylene plate. His6-FABP4 and Tb anti-His6 antibody were prepared in the assay buffer (25 mM Tris/HCl, pH 7.4, 0.4 mg/ml γ-globulins, 0.010% NP-40, 1 mM DTT) at a concentration of 83 nM and 49.6 nM, respectively. The protein and antibody solutions were then mixed at a ratio of 34:7 (v/v) and incubated on ice for 30 minutes. The assay was initiated by adding 41 μL of the resulting protein/antibody solution into the wells containing the compounds and BODIPY FL C12. The plate was centrifuged and incubated at room temperature for 10 min. The TR-FRET signals were recorded using an EnVision Multilabel plate reader (PerkinElmer; TB excitation 320 nm, BODIPY FL C12 emission 520 nm; TB emission 615 nm). Relative fluorescence ratio (520 nm*10,000/615 nm) were used to calculate the compound mediated inhibition of BODIPY C12 FL fatty acid binding to FABP4. The compounds were tested in triplicates and the results were represented as mean percent inhibition (compound*100/DMSO)±standard deviation (SD). Glucose consumption and FABP4 inhibition is shown below in Table 3 below. The compounds showing no inhibition of activity in the TR-FRET assay are marked as N.A. N.D. stands for “not determined”.

[2] = system: differentiated 3T3-L1 mouse adipocyte cells; experiment: Adipocyte glucose consumption in differentiated 3T3-L1 cells (colorimetric glucose assay of the medium); type: cell-based; conditions: 3T3-L1, 24 h, compound 10 μM, loss of glucose from culture medium, mean fold change (compound/DMSO)
Protocol: Activity of compounds on adipocyte glucose consumption was tested in differentiated 3T3-L1 mouse adipocyte cells. 3T3-L1 preadipocytes (ATCC) were routinely cultured in a growth medium composed of DMEM high-glucose (Sigma), 10% FBS (Gibco), 10 U/ml penicillin and 10 μg/ml streptomycin (P/S; Gibco). To induce adipogenic differentiation, a confluent layer of 3T3-L1 cells were incubated with the growth medium containing 2 μM rosiglitazone, 1 μM dexamethasone, 500 μM IBMX, and 1 μg/ml insulin (Sigma). Forty-eight (48) hours later (on day 2) and on days 4 and 6, medium of the cells was replaced with fresh medium containing 1 μg/ml insulin. On days 8 and 10, the medium was refreshed with regular growth medium and addition of insulin was omitted. On day 11, medium of the cells were 10 replaced with fresh medium containing either the indicated compounds (10 μM) or the vehicle in which the compounds were dissolved (DMSO). The final concentration of DMSO was 0.1% (v/v). Growth medium containing 0.1% DMSO was incubated in culture wells containing no cells and used as control. 24 hours later, medium was harvested and subjected to centrifugation at 10,000 g for 5 min. Glucose concentration in the supernatants was determined using a 15 colorimetric assay (Glucose Assay Kit I, Eton Biosciences). Glucose consumption in compound and vehicle treated cells was measured as loss of glucose from the culture medium and represented as mean fold change (compound/DMSO)±standard deviation (SD).

Row | Compound | inhibition at 1085 µM (stock) [1] | fold induction at 10 µM [2]
1 | CCCCCCC1CCc2nc(N(C)CC(=O)O)cc(-c3ccccc3)c2C1 (stereo not drawn) [2-[(6-hexyl-4-phenyl-5,6,7,8-tetrahydroquinolin-2-yl)(methyl)amino]acetic acid] | 64.5% | 1.34
2 | CCCCCc1ccc2nc(N(C)CC(=O)O)cc(-c3cccc(C(N)=O)c3)c2c1 [2-{[4-(3-carbamoylphenyl)-6-pentylquinolin-2-yl](methyl)amino}acetic acid] | 60.4% | 1.04
3 | CCCCc1ccc2nc(N(C)CC(=O)O)cc(-c3ccccc3C)c2c1 [2-{[6-butyl-4-(2-methylphenyl)quinolin-2-yl](methyl)amino}acetic acid] | 99.7% | 1.27
4 | CCCCc1ccc2nc(N(C)CC(=O)O)cc(-c3ccncc3)c2c1 [2-{[6-butyl-4-(pyridin-4-yl)quinolin-2-yl](methyl)amino}acetic acid] | 15% | 1.28
5 | CCCc1cccc(-c2ccc3nc(N(C)CC(=O)O)cc(-c4ccccc4)c3c2)c1 [2-{methyl[4-phenyl-6-(3-propylphenyl)quinolin-2-yl]amino}acetic acid] | 61.2% | 1.07
6 | CCCCCCc1ccc2nc(N(C)CC(=O)O)cc(-c3ccc(F)cc3)c2c1 [2-{[4-(4-fluorophenyl)-6-hexylquinolin-2-yl](methyl)amino}acetic acid] | 81% | 1.3
7 | CCCCCc1ccc2nc(N(C)CC(=O)O)cc(-c3ccccc3)c2c1 [2-[methyl(6-pentyl-4-phenylquinolin-2-yl)amino]acetic acid] | 90.5% | 1.32
8 | CCCCc1ccc2nc(N(C)CC(=O)O)cc(-c3ccc(O)cc3)c2c1 [2-{[6-butyl-4-(4-hydroxyphenyl)quinolin-2-yl](methyl)amino}acetic acid] | 60.5% | 1.26
9 | CCCCc1ccc2nc(N(C)CC(=O)O)cc(-c3cccc(C)c3)c2c1 [2-{[6-butyl-4-(3-methylphenyl)quinolin-2-yl](methyl)amino}acetic acid] | 82.4% | 1.4
10 | CN(CC(=O)O)c1cc(-c2ccccc2)c2cc(CCc3ccc4c(c3)CCCN4)ccc2n1 [2-[methyl({4-phenyl-6-[2-(1,2,3,4-tetrahydroquinolin-6-yl)ethyl]quinolin-2-yl})amino]acetic acid] | 44.7% | 1.31
11 | CCCCc1ccc2nc(N(C)CC(=O)O)cc(-c3cccc(C(N)=O)c3)c2c1 [2-{[6-butyl-4-(3-carbamoylphenyl)quinolin-2-yl](methyl)amino}acetic acid] | 26.1% | 1.13
12 | CCCCCCc1ccc2nc(N3CCCC(C(=O)O)C3)cc(-c3cccnc3)c2c1 (stereo not drawn) [1-[6-hexyl-4-(pyridin-3-yl)quinolin-2-yl]piperidine-3-carboxylic acid] | 91.6% | 1.09
13 | CCCCc1ccc2nc(N(C)C(C)CC(=O)O)cc(-c3ccccc3)c2c1 (stereo not drawn) [3-[(6-butyl-4-phenylquinolin-2-yl)(methyl)amino]butanoic acid] | 103% | 1.04
14 | CCCCc1ccc2nc(N(C)CC(=O)O)cc(-c3cccnc3)c2c1 [2-{[6-butyl-4-(pyridin-3-yl)quinolin-2-yl](methyl)amino}acetic acid] | 39.2% | 1.19
15 | CCCCCCc1ccc2nc(N(CC)CC(=O)O)cc(-c3ccc(F)cc3)c2c1 [2-{ethyl[4-(4-fluorophenyl)-6-hexylquinolin-2-yl]amino}acetic acid] | 78.3% | 1.27
16 | CN(CC(=O)O)c1cc(-c2ccccc2)c2cc(CCc3cncnc3)ccc2n1 [2-[methyl({4-phenyl-6-[2-(pyrimidin-5-yl)ethyl]quinolin-2-yl})amino]acetic acid] | 13.2% | 1.22
17 | CN(c1cc(-c2ccccc2)c2cc(CCc3ccccc3)ccc2n1)c1nnn[nH]1 [N-methyl-4-phenyl-6-(2-phenylethyl)-N-(1H-1,2,3,4-tetrazol-5-yl)quinolin-2-amine] | 76.3% | 1.17
18 | CN(CC(=O)O)c1cc(-c2ccccc2)c2cc(CCCc3ccccc3)ccc2n1 [2-{methyl[4-phenyl-6-(3-phenylpropyl)quinolin-2-yl]amino}acetic acid] | 97% | 1.31
19 | CN(CC(=O)O)c1cc(-c2cccc(C#N)c2)c2cc(Br)ccc2n1 [2-{[6-bromo-4-(3-cyanophenyl)quinolin-2-yl](methyl)amino}acetic acid] | 91.1% | 1.16
20 | CCCCCCc1ccc2nc(N(C)CC(=O)O)cc(N3CCC(F)(F)C3)c2c1 [2-{[4-(3,3-difluoropyrrolidin-1-yl)-6-hexylquinolin-2-yl](methyl)amino}acetic acid] | 50.5% | 1.28
21 | CCCCCCCCc1ccc2nc(N(CCC)CC(=O)O)cc(-c3ccc(F)cc3)c2c1 [2-{[4-(4-fluorophenyl)-6-octylquinolin-2-yl](propyl)amino}acetic acid] | 53.1% | 1.2
22 | CCCCc1ccc2nc(N3CCCC(C(=O)O)C3)cc(-c3ccccc3)c2c1 (stereo not drawn) [1-(6-butyl-4-phenylquinolin-2-yl)piperidine-3-carboxylic acid] | 98.1% | 1.25
23 | CCc1ccc2nc(OCC(=O)O)cc(-c3cccc(C(N)=O)c3)c2c1 [2-{[4-(3-carbamoylphenyl)-6-ethylquinolin-2-yl]oxy}acetic acid] | 30.4% | 0.93
24 | N#Cc1cccc(-c2cc(OCC(=O)O)nc3ccc(Br)cc23)c1 [2-{[6-bromo-4-(3-cyanophenyl)quinolin-2-yl]oxy}acetic acid] | 19.9% | 0.99
25 | CCCCCCCCc1ccc2nc(N(C)CC(=O)O)cc(Oc3cccc(F)c3)c2c1 [2-{[4-(3-fluorophenoxy)-6-octylquinolin-2-yl](methyl)amino}acetic acid] | 74.6% | 1.32
26 | CCCCc1ccc2nc(OC(C)C(=O)O)cc(-c3cccc(C#N)c3)c2c1 (stereo not drawn) [2-{[6-butyl-4-(3-cyanophenyl)quinolin-2-yl]oxy}propanoic acid] | 12.7% | 1.26
27 | CN(CC(=O)O)c1cc(-c2ccccc2)c2cc(CCC3CNc4ccccc4N3)ccc2n1 (stereo not drawn) [2-[methyl({4-phenyl-6-[2-(1,2,3,4-tetrahydroquinoxalin-2-yl)ethyl]quinolin-2-yl})amino]acetic acid] | 14.9% | 1.26
28 | CCCCc1ccc2nc(N(C)CC(=O)O)cc(-c3cccc(C#N)c3)c2c1 [2-{[6-butyl-4-(3-cyanophenyl)quinolin-2-yl](methyl)amino}acetic acid] | 33.2% | 1.33
29 | CCCCCCc1ccc2nc(N(C)CC(C)C(=O)O)cc(-c3ccc(F)cc3)c2c1 (stereo not drawn) [3-{[4-(4-fluorophenyl)-6-hexylquinolin-2-yl](methyl)amino}-2-methylpropanoic acid] | 92.3% | 1.31
30 | CCCCCCc1ccc2nc(N(C)CC(C)C(=O)O)cc(-c3cccc(C#N)c3)c2c1 (stereo not drawn) [3-{[4-(3-cyanophenyl)-6-hexylquinolin-2-yl](methyl)amino}-2-methylpropanoic acid] | 56.5% | 1.3
